Experimental data published in the supplement of paper PMC11451515.

System: SEM cells
Assay: cell viability relative to DMSO control; higher = less cytotoxic
Settings: 48 h
In short: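 Library compounds in DMSO were pin-dosed into 1536-well plates (5 μl) holding NOMO1 or SEM (500 cells/well) or P12-Ichikawa (1000 cells/well) leukemia cells, across an 11-point threefold series of 47 μM to 0.79 nM. Each cell line had been adapted for at least four passages in each medium. CellTiter-Glo One luminescence was read after 48 h at 37°C. Viability is the per-plate percentage relative to DMSO wells, with cell-free wells as background.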

[1] = HPLM + 10% dialyzed FBS, 0.000781 µM
[2] = HPLM + 10% dialyzed FBS, 0.00234 µM
[3] = HPLM + 10% dialyzed FBS, 0.00702 µM
[4] = HPLM + 10% dialyzed FBS, 0.0211 µM
[5] = HPLM + 10% dialyzed FBS, 0.0632 µM
[6] = HPLM + 10% dialyzed FBS, 0.19 µM
[7] = HPLM + 10% dialyzed FBS, 0.569 µM
[8] = HPLM + 10% dialyzed FBS, 1.71 µM
[9] = HPLM + 10% dialyzed FBS, 5.12 µM
[10] = HPLM + 10% dialyzed FBS, 15.4 µM
[11] = HPLM + 10% dialyzed FBS, 46.1 µM
[12] = RPMI 5 mM glucose + 10% FBS, 0.000781 µM
[13] = RPMI 5 mM glucose + 10% FBS, 0.00234 µM
[14] = RPMI 5 mM glucose + 10% FBS, 0.00702 µM
[15] = RPMI 5 mM glucose + 10% FBS, 0.0211 µM
[16] = RPMI 5 mM glucose + 10% FBS, 0.0632 µM
[17] = RPMI 5 mM glucose + 10% FBS, 0.19 µM
[18] = RPMI 5 mM glucose + 10% FBS, 0.569 µM
[19] = RPMI 5 mM glucose + 10% FBS, 1.71 µM
[20] = RPMI 5 mM glucose + 10% FBS, 5.12 µM
[21] = RPMI 5 mM glucose + 10% FBS, 15.4 µM
[22] = RPMI 5 mM glucose + 10% FBS, 46.1 µM
[23] = RPMI 5 mM glucose + 10% dialyzed FBS, 0.000781 µM
[24] = RPMI 5 mM glucose + 10% dialyzed FBS, 0.00234 µM
[25] = RPMI 5 mM glucose + 10% dialyzed FBS, 0.00702 µM
[26] = RPMI 5 mM glucose + 10% dialyzed FBS, 0.0211 µM
[27] = RPMI 5 mM glucose + 10% dialyzed FBS, 0.0632 µM
[28] = RPMI 5 mM glucose + 10% dialyzed FBS, 0.19 µM
[29] = RPMI 5 mM glucose + 10% dialyzed FBS, 0.569 µM
[30] = RPMI 5 mM glucose + 10% dialyzed FBS, 1.71 µM
[31] = RPMI 5 mM glucose + 10% dialyzed FBS, 5.12 µM
[32] = RPMI 5 mM glucose + 10% dialyzed FBS, 15.4 µM
[33] = RPMI 5 mM glucose + 10% dialyzed FBS, 46.1 µM

| Compound | cell viability [1] | cell viability [2] | cell viability [3] | cell viability [4] | cell viability [5] | cell viability [6] | cell viability [7] | cell viability [8] | cell viability [9] | cell viability [10] | cell viability [11] | cell viability [12] | cell viability [13] | cell viability [14] | cell viability [15] | cell viability [16] | cell viability [17] | cell viability [18] | cell viability [19] | cell viability [20] | cell viability [21] | cell viability [22] | cell viability [23] | cell viability [24] | cell viability [25] | cell viability [26] | cell viability [27] | cell viability [28] | cell viability [29] | cell viability [30] | cell viability [31] | cell viability [32] | cell viability [33] |
| --- | --- | --- | --- | --- | --- | --- | --- | --- | --- | --- | --- | --- | --- | --- | --- | --- | --- | --- | --- | --- | --- | --- | --- | --- | --- | --- | --- | --- | --- | --- | --- | --- | --- |
| Cn1cnc(-c2cc3nccc(Oc4ccc(NC(=S)NC(=O)Cc5ccccc5)cc4F)c3s2)c1 | 53.6% | 82.3% | 67.1% | 57.5% | 46% | 46.9% | 43.9% | 30.5% | 31.2% | 32.4% | 12.8% | 82.5% | 94.7% | 85.6% | 68.4% | 53.7% | 66.1% | 46.2% | 38.2% | 30.5% | 24.8% | 2.88% | 68.9% | 63.1% | 70% | 43.8% | 35.3% | 36% | 35.3% | 25.4% | 24.7% | 20.1% | 4.88% |
| C/C(=C\c1csc(C)n1)[C@@H]1C[C@@H]2O[C@@H]2CCC[C@H](C)[C@H](O)[C@@H](C)C(=O)C(C)(C)[C@@H](O)CC(=O)O1 | 26.5% | 21.4% | 22.1% | 22.7% | 19.9% | 20.3% | 23.7% | 21.5% | 19.1% | 20.8% | 20.7% | 14.8% | 18.4% | 16.2% | 16% | 16.4% | 16.4% | 16.2% | 13.4% | 16.1% | 16.3% | 13.4% | 32.1% | 17.1% | 19.3% | 16.8% | 15.6% | 17.7% | 19.6% | 15.2% | 18.7% | 21.8% | 19.2% |
| COc1cc(NC(=O)c2ccc(-c3ccc(Cl)cc3)o2)cc(OC)c1 | 73% | 94.6% | 93.6% | 106% | 98.5% | 114% | 116% | 107% | 107% | 94.3% | 107% | 77.7% | 90% | 103% | 104% | 107% | 96.8% | 94.2% | 86.4% | 102% | 105% | 98.9% | 81.2% | 96.2% | 95.9% | 102% | 105% | 95.4% | 96.4% | 89.7% | 99.8% | 109% | 90.1% |
